Data reported in patent US11033556B2, “Bicyclic sulfonamides” (priority 2019, dated 2021).

system: genotype D HBV; assay: HBV-DNA Antiviral Assay Using HepG2.117 Cells; type: cell-based; conditions: Hepatitis B virus, HepG2.117, 96 h, intracellular HBV DNA by qPCR, day 4
Description: The following assay procedure describes the HBV antiviral assay, using HepG2.117 cells, which carry a stably integrated genotype D HBV genome under the control of a Tet-off promoter, and intracellular HBV DNA quantification as endpoint. Cell viability is assessed in parallel by measuring the intracellular ATP content using ATPlite (Perkin Elmer).
On day 0, HepG2.117 cells (which are maintained in routine cell culture with doxycycline present in the medium at a final concentration of 1 μg/mL) were seeded in 96-well plates (white with clear bottom) at a density of 2.0×10^4 cells/well (0.1 mL/well) in medium without doxycycline to induce pgRNA transcription and subsequent formation of HBV particles. The cells were incubated at 37° C. and 5% CO2.
On day 1, medium was removed from each well, the test articles were diluted in culture medium without doxcycyline and 100 μL was added to cell culture wells (9 concentrations, 4-fold dilution). For each plate, 6 untreated (merely DMSO) wells were included. The final concentration of DMSO in the culture medium was 2%. Each plate was prepared in duplicate (one for HBV DNA extraction, one for ATPlite measurement). The cells were incubated at 37° C. and 5% CO2 for 3 days.
On day 4, cell viability was assessed using ATPlite and cell lysates were prepared for HBV DNA extraction and subsequent quantification by qPCR.
Medium was removed from each well and 100 μL of 0.33% NP-40 in H2O was added to each well. Plates were sealed, incubated at 4° C. for 5 mins, vortexed extensively and centrifuged briefly. Next, 35 μL of lysate was added to 65 μL QuickExtract DNA Extraction Solution (Epicentre) in a PCR plate for each well. PCR plate was incubated at 65° C. for 6 mins, 98° C. for 2 mins and finally cooled to 4° C. HBV DNA was then quantified by qPCR with HBV-specific primers and probes as specified in Table 4 using the Bio-Rad SSOAdvanced Universal Probes Supermix on a CFX96 machine (Bio-Rad). The PCR cycle program consisted of 95° C. for 3 mins, followed by 40 cycles at 95° C. for 10 sec and 60° C. for 30 sec.
A DNA standard was prepared by dilution of an IDT gBlock corresponding to the amplicon with concentrations ranging from 10^2 to 10^8 copies/input (i.e. per 4 μL) and used to generate a standard curve by plotting Cq values vs. HBV DNA standard concentration. The quantity of HBV DNA in each sample was determined by interpolating from the standard curve.
Cell viability was calculated as follows: % Cell viability=(luminescence value of test sample)/(average luminescence value of 2% DMSO control)×100%. HBV DNA inhibition was calculated as follows: 100−(HBV DNA copy number of test sample)/(average HBV DNA copy number of 2% DMSO control)×100%. No normalization to entecavir was required due to the excellent dynamic window of this assay. The CC50, EC50 and EC90 values were determined by dose-response curves fitted by GraphPad Prism using “log (agonist) vs. response—Variable slope”.

SMILES | EC50 [nM]
C=CC1([C@@H]2COc3c(cn(C)c3C(=O)Nc3ccc(F)c(C#N)c3)S(=O)(=O)N2)CCOCC1 [Compound 39B] | 10 to 100
C=CC[C@](C)(O)[C@H]1COc2c(cn(C)c2C(=O)Nc2ccc(F)c(C#N)c2)S(=O)(=O)N1 [Compound 40A] | 1 to 10
C=CC[C@@](C)(O)[C@H]1COc2c(cn(C)c2C(=O)Nc2ccc(F)c(C#N)c2)S(=O)(=O)N1 [Compound 40B] | 1 to 10
C=C[C@H](O)[C@]1(C)COc2c(cn(C)c2C(=O)Nc2ccc(F)c(C#N)c2)S(=O)(=O)N1 [Compound 41A] | 1 to 10
C=C[C@@H](O)[C@@]1(C)COc2c(cn(C)c2C(=O)Nc2ccc(F)c(C#N)c2)S(=O)(=O)N1 [Compound 41B] | 1 to 10
C=C[C@H](O)[C@@]1(C)COc2c(cn(C)c2C(=O)Nc2ccc(F)c(C#N)c2)S(=O)(=O)N1 [Compound 41C] | 10 to 100
C=C[C@@H](O)[C@]1(C)COc2c(cn(C)c2C(=O)Nc2ccc(F)c(C#N)c2)S(=O)(=O)N1 [Compound 41D] | 10 to 100
C#C[C@H](O)[C@]1(C)COc2c(cn(C)c2C(=O)Nc2ccc(F)c(C#N)c2)S(=O)(=O)N1 [Compound 42A] | 1 to 10
C#C[C@@H](O)[C@@]1(C)COc2c(cn(C)c2C(=O)Nc2ccc(F)c(C#N)c2)S(=O)(=O)N1 [Compound 42B] | 1 to 10
C#C[C@H](O)[C@@]1(C)COc2c(cn(C)c2C(=O)Nc2ccc(F)c(C#N)c2)S(=O)(=O)N1 [Compound 42C] | 1 to 10
C#C[C@@H](O)[C@]1(C)COc2c(cn(C)c2C(=O)Nc2ccc(F)c(C#N)c2)S(=O)(=O)N1 [Compound 42D] | 10 to 100
C=CC1([C@H]2COc3c(cn(C)c3C(=O)Nc3ccc(F)c(C#N)c3)S(=O)(=O)N2)CCS(=O)(=O)CC1 [Compound 43A] | 10 to 100
C=CC1([C@@H]2COc3c(cn(C)c3C(=O)Nc3ccc(F)c(C#N)c3)S(=O)(=O)N2)CCS(=O)(=O)CC1 [Compound 43B] | 10 to 100
C=CC[C@H](O)[C@]1(C)COc2c(cn(C)c2C(=O)Nc2ccc(F)c(C#N)c2)S(=O)(=O)N1 [Compound 44A] | 10 to 100
C=CC[C@@H](O)[C@@]1(C)COc2c(cn(C)c2C(=O)Nc2ccc(F)c(C#N)c2)S(=O)(=O)N1 [Compound 44B] | 1 to 10
C=CC(C)(C)[C@H]1COc2c(cn(C)c2C(=O)Nc2ccc(F)c(C#N)c2)S(=O)(=O)N1 [Compound 45A] | 1 to 10
C=CC(C)(C)[C@@H]1COc2c(cn(C)c2C(=O)Nc2ccc(F)c(C#N)c2)S(=O)(=O)N1 [Compound 45B] | 1 to 10
CC#CC[C@H]1COc2c(cn(C)c2C(=O)Nc2ccc(F)c(C#N)c2)S(=O)(=O)N1 [Compound 46] | 1 to 10
C=CC[C@H]1COc2c(cn(C)c2C(=O)Nc2ccc(F)c(C#N)c2)S(=O)(=O)N1 [Compound 47] | 1 to 10
